Assay results: patent US20190330224A1, “ACC INHIBITORS AND USES THEREOF” (Gilead Apollo, LLC, priority 2015, published 2019)
Converted amounts (≈) assume the structure as drawn.

Columns and labels:
C. albicans ATCC 90028 = assay: Anti-Fungal Activity Assay (broth microtiter MIC), C. albicans; format: cell-based, Candida albicans; conditions: Candida albicans, ATCC90028, 48 h, 3 replicates; MIC recorded at 48 h; read-out: MIC C. albicans ATCC 90028
Outline: (§1)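 Broth microdilution per CLSI M27-A3 in RPMI 1640+MOPS, inoculum from overnight Sabouraud dextrose agar colonies at 35° C; compounds from 1 mg/mL DMSO stocks. MIC read visually against growth control at 48 h, with an added 24 h reading for soraphen.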

[1] = tested on: Fusarium moniliforme (Fm); assay: Growth inhibition assay of fungal pathogens, Fm; format: cell-based; conditions: Fusarium verticillioides; 48 hours; read-out: Concentration at 90% Inhibition, Fm
Outline: (§2)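 Spores in 17% V8 medium exposed to compound at final 50, 10, 2 ppm or 2, 0.4, 0.08 ppm, with 2% DMSO. OD600 and visual ratings taken at 24 and 48 h, with blank subtracted. Percent growth inhibition derived from 48 h readings relative to 2% DMSO control.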

[2] = compound concentration 10 ppm, foliar spray, evaluated 7 days after inoculation
Fungal ACC2 = Fungal ACC2 (UniProt Q00955); conditions: read-out: Fungal ACC2 (IC50, in vitro ACC2 inhibition)
Diplodia maydis (Dm) = assay: Growth inhibition assay of fungal pathogens, Dm; format: cell-based; conditions: Stenocarpella maydis; 48 hours; read-out: Concentration at 90% Inhibition, Dm
Outline: as §2

Botrtyis cinerea (Bc) = assay: Growth inhibition assay of fungal pathogens, Bc; format: cell-based; conditions: 48 hours; read-out: Concentration at 90% Inhibition, Bc
Outline: as §2

Human ACC2 = Human ACC2 (Homo sapiens, UniProt O00763); assay: In vitro ACC2 inhibition assay (ADP-Glo), human ACC2; format: biochemical; conditions: 5 nM ACC2, 20 μM ATP, 20 μM acetyl-CoA
Septoria tritici (St) = assay: Growth inhibition assay of fungal pathogens, St; format: cell-based; conditions: Zymoseptoria tritici; 48 hours; read-out: Concentration at 90% Inhibition, St
Outline: as §2

[3] = tested on: Collectotrichum graminicola (Cg); assay: Growth inhibition assay of fungal pathogens, Cg; format: cell-based; conditions: 48 hours; read-out: Concentration at 90% Inhibition, Cg
Outline: as §2

[4] = tested on: C. parapsilosis ATCC 22019; assay: Anti-Fungal Activity Assay (broth microtiter MIC), C. parapsilosis; format: cell-based, Candida parapsilosis; conditions: Lodderomyces parapsilosis, ATCC22019, 48 h, 3 replicates; MIC recorded at 48 h; read-out: MIC C. parapsilosis ATCC 22019
Outline: as §1

[5] = tested on: Phytophthora capsici (Pc); assay: Growth inhibition assay of fungal pathogens, Pc; format: cell-based; conditions: 48 hours, read-out: Concentration at 90% Inhibition, Pc
Outline: as §2

[6] = tested on: Blumeria graminis f sp. hordei; assay: Foliar protection test, barley powdery mildew control; format: in vivo, Blumeria graminis f sp. hordei on Hordeum vulgare cv. Perry; conditions: 168 h, compound concentration 50 ppm, foliar spray, evaluated 7 days after inoculation, read-out: Barley Powdery Mildew Control at 50 ppm
Outline: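 Barley cv. Perry at first true leaf (6 days) sprayed to wetness on both leaf sides with compound in 5% acetone/0.005% Tween 80, typically at 200, 100, 50, 10 or 2 ppm. Inoculated 24 h later by shaking spores from colonized plants; kept at 20-22 °C, 70% RH. Mildew colonization scored 7 days later as percent control.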

Rhizoctonia solani (Rs) = assay: Growth inhibition assay of fungal pathogens, Rs; format: cell-based; conditions: 48 hours, read-out: Concentration at 90% Inhibition, Rs
[7] = tested on: Fusarium virguliforme (Fv); assay: Growth inhibition assay of fungal pathogens, Fv; format: cell-based; conditions: 48 hours, read-out: Concentration at 90% Inhibition, Fv
Outline: as §2

C. krusei ATCC 6258 = assay: Anti-Fungal Activity Assay (broth microtiter MIC), C. krusei; format: cell-based, Candida krusei; conditions: Pichia kudriavzevii, ATCC6258, 48 h, 3 replicates; MIC recorded at 48 h; read-out: MIC C. krusei ATCC 6258
Outline: as §1

Human ACC2, sequence (O00763 whole entry): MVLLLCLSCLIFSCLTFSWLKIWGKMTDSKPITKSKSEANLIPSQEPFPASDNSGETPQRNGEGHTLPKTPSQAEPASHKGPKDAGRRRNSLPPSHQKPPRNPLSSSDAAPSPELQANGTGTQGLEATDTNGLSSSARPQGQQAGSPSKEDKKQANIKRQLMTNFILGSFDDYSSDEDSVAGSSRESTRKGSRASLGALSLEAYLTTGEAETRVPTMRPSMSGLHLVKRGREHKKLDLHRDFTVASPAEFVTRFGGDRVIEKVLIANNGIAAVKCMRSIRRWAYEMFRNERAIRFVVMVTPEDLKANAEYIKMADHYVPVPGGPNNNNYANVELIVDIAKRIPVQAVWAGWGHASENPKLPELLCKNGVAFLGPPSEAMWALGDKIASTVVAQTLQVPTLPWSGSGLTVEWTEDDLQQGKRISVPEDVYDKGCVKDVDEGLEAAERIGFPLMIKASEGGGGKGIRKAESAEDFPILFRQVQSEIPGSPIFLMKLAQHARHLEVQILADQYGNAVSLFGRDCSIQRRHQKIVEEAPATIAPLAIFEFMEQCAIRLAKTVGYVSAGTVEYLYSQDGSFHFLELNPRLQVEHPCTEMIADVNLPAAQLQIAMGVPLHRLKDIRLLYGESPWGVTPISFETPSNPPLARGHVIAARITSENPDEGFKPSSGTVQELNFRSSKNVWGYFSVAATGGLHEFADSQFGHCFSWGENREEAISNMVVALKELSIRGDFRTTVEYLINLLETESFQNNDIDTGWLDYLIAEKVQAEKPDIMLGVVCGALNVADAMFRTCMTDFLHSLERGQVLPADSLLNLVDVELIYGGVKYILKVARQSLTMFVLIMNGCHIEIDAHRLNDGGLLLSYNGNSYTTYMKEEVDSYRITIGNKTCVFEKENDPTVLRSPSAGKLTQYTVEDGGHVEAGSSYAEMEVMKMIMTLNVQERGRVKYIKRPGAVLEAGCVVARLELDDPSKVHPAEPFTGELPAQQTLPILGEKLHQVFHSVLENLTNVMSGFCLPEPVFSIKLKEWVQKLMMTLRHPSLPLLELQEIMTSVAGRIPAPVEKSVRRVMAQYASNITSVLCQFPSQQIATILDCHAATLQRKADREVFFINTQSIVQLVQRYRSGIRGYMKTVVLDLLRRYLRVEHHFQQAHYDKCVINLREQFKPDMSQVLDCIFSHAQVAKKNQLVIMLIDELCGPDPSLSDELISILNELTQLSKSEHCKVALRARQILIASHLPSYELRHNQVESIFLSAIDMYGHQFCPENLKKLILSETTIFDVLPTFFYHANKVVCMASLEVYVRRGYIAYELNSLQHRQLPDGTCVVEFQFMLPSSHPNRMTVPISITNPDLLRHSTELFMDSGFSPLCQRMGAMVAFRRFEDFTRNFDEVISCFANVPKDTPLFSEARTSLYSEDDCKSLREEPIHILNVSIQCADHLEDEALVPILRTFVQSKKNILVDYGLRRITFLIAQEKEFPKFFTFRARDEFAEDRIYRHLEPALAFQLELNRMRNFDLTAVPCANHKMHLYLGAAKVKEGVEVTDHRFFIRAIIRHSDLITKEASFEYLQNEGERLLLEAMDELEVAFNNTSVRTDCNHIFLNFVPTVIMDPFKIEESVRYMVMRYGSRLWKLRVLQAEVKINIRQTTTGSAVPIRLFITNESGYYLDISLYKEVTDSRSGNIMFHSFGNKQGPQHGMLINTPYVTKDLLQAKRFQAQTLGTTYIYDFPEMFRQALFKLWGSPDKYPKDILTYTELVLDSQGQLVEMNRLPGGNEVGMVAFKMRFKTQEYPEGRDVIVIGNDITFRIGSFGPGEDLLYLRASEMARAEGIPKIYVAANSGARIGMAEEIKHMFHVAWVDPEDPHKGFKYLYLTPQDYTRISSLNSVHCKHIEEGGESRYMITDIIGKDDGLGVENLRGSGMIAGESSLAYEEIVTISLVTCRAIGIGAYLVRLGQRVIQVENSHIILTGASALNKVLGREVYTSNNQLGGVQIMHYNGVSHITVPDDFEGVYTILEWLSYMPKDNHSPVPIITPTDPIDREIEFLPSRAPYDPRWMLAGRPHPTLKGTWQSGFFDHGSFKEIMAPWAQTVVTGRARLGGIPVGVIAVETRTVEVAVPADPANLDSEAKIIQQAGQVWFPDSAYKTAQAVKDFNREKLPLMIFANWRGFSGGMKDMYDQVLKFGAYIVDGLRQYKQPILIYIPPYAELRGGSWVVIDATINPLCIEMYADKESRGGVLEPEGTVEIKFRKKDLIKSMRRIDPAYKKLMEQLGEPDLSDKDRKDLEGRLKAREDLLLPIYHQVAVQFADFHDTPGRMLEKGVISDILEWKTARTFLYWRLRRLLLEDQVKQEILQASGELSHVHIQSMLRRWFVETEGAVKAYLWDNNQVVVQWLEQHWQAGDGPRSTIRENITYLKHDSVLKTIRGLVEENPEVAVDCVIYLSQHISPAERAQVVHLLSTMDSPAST
Fungal ACC2, sequence (Q00955 whole entry): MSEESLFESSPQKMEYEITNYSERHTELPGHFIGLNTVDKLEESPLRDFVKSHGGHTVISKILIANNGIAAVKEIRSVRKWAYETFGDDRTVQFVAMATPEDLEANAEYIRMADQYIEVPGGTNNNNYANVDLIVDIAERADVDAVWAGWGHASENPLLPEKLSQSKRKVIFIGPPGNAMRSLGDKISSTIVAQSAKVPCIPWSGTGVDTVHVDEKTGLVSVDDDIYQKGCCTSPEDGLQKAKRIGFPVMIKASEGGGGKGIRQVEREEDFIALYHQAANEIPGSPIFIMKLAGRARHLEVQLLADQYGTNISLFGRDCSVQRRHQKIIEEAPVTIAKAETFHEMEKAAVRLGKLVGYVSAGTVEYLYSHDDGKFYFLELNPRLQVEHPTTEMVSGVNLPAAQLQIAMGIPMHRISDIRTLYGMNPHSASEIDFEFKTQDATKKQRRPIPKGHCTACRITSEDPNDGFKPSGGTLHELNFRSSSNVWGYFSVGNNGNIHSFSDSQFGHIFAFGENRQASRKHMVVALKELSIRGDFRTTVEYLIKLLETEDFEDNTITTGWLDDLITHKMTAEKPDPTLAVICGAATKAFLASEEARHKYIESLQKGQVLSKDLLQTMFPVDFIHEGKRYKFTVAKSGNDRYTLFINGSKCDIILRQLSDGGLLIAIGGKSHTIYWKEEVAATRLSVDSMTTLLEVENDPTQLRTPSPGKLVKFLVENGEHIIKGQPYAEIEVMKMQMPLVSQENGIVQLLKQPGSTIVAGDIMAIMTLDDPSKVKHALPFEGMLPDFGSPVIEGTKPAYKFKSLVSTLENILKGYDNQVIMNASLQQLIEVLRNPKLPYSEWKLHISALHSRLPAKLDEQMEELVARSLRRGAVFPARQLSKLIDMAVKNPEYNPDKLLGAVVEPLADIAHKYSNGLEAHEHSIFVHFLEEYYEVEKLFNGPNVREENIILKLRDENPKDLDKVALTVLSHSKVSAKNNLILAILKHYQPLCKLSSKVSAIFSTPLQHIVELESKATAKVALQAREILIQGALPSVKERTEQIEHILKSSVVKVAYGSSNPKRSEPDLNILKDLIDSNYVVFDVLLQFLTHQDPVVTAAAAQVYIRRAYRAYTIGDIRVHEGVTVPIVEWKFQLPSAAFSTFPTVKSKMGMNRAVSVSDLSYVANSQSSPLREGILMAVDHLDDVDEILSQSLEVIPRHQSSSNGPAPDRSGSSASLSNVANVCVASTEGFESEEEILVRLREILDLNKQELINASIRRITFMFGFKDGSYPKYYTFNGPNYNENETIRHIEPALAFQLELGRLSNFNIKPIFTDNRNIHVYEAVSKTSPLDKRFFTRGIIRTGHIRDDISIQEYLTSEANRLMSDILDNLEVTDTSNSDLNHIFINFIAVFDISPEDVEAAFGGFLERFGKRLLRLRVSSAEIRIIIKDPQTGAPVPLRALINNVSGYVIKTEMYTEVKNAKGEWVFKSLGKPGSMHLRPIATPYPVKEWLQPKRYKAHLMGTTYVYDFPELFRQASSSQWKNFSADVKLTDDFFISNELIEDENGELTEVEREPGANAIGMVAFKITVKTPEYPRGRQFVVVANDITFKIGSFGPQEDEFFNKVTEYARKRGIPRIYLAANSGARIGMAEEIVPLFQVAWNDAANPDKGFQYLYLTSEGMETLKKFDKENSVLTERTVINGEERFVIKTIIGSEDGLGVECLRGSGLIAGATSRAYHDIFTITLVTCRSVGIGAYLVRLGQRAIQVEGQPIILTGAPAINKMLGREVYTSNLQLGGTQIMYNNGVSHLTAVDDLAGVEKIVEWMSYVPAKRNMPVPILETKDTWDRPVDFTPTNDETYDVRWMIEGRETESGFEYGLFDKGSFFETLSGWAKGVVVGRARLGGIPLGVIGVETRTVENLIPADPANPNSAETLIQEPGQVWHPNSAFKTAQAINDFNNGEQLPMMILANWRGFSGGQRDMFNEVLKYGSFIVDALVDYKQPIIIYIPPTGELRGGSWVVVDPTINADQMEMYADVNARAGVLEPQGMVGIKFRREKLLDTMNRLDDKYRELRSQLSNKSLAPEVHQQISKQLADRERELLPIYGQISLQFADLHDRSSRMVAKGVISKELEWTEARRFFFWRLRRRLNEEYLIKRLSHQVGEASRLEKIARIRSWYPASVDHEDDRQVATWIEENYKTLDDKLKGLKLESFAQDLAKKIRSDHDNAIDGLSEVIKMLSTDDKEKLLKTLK

SMILES	MIC (C. albicans ATCC 90028)	IC90 [1]	Barley Powdery Mildew Control at 10 ppm [2]	IC50 (Fungal ACC2)	IC90 (Diplodia maydis (Dm))	IC90 (Botrtyis cinerea (Bc))	IC50 (Human ACC2)	IC90 (Septoria tritici (St))	IC90 [3]	MIC [4]	IC90 [5]	pest or weed control at 50 ppm [6]	IC90 (Rhizoctonia solani (Rs))	IC90 [7]	MIC (C. krusei ATCC 6258)
COc1ccc(F)cc1[C@H](Cn1c(=O)n([C@H]2CCCN(C)C2=O)c(=O)c2c(C)c(-n3nccn3)sc21)OCCO [Compound I-72, 1-((R)-2-(5-fluoro-2-methoxyphenyl)-2-(2-hydroxyethoxy)ethyl)-5-methyl-3-((S)-1-methyl-2-oxopiperidin-3-yl)-6-(2H-1,2,3-triazol-2-yl)thieno[2,3-d]pyrimidine-2,4(1H,3H)-dione]	2.1 to 4 µg/mL (≈ 3.67 to 6.99 µM)	2 µg/mL (≈ 3.49 µM)	D (provided a compound having <25% control of barley powdery mildew)	0.7 to 2 nM	10 µg/mL (≈ 17.5 µM)	> 50 µg/mL	2 to 10 nM	> 50 µg/mL	10 µg/mL (≈ 17.5 µM)	2.1 to 4 µg/mL (≈ 3.67 to 6.99 µM)	> 50 µg/mL	25 to 49%	2 µg/mL (≈ 3.49 µM)	2 µg/mL (≈ 3.49 µM)	2.1 to 4 µg/mL (≈ 3.67 to 6.99 µM)
COc1ccc(F)cc1[C@H](Cn1c(=O)n([C@@H]2CCCN(C)C2=O)c(=O)c2c(C)c(-n3nccn3)sc21)OCCO [Compound I-73, 1-((R)-2-(5-fluoro-2-methoxyphenyl)-2-(2-hydroxy-ethoxy)ethyl)-5-methyl-3-((R)-1-methyl-2-oxopiperidin-3-yl)-6-(2H-1,2,3-triazol-2-yl)thieno[2,3-d]pyrimidine-2,4(1H,3H)-dione]	2.1 to 4 µg/mL (≈ 3.67 to 6.99 µM)	2 µg/mL (≈ 3.49 µM)	D (provided a compound having <25% control of barley powdery mildew)	0.7 to 2 nM	2 µg/mL (≈ 3.49 µM)	10 µg/mL (≈ 17.5 µM)	10 to 100 nM	> 50 µg/mL	2 µg/mL (≈ 3.49 µM)	2.1 to 4 µg/mL (≈ 3.67 to 6.99 µM)	> 50 µg/mL	50 to 69%	2 µg/mL (≈ 3.49 µM)	2 µg/mL (≈ 3.49 µM)	2.1 to 4 µg/mL (≈ 3.67 to 6.99 µM)
COc1ccc(F)cc1[C@H](Cn1c(=O)n([C@H]2CCNC2=O)c(=O)c2c(C)c(-n3nccn3)sc21)OCCO [Compound I-80, 1-((R)-2-(5-fluoro-2-methoxyphenyl)-2-(2-hydroxy-ethoxy)ethyl)-5-methyl-3-((S)-2-oxopyrrolidin-3-yl)-6-(2H-1,2,3-triazol-2-yl)thieno[2,3-d]pyrimidine-2,4(1H,3H)-dione]	2.1 to 4 µg/mL (≈ 3.86 to 7.35 µM)	2 µg/mL (≈ 3.67 µM)	D (provided a compound having <25% control of barley powdery mildew)	0.7 to 2 nM	> 50 µg/mL	2 µg/mL (≈ 3.67 µM)	2 to 10 nM	> 50 µg/mL	> 50 µg/mL	2.1 to 4 µg/mL (≈ 3.86 to 7.35 µM)	> 50 µg/mL	25 to 49%	10 µg/mL (≈ 18.4 µM)	10 µg/mL (≈ 18.4 µM)	2.1 to 4 µg/mL (≈ 3.86 to 7.35 µM)
COc1ccc(F)cc1[C@H](Cn1c(=O)n([C@H]2CCN(C)C2=O)c(=O)c2c(C)c(-n3nccn3)sc21)OCCO [Compound I-82, 1-((R)-2-(5-fluoro-2-methoxyphenyl)-2-(2-hydroxy-ethoxy)ethyl)-5-methyl-3-((S)-1-methyl-2-oxopyrrolidin-3-yl)-6-(2H-1,2,3-triazol-2-yl)thieno[2,3-d]pyrimidine-2,4(1H,3H)-dione]	2.1 to 4 µg/mL (≈ 3.76 to 7.16 µM)	2 µg/mL (≈ 3.58 µM)	D (provided a compound having <25% control of barley powdery mildew)	0.7 to 2 nM	10 µg/mL (≈ 17.9 µM)	2 µg/mL (≈ 3.58 µM)	2 to 10 nM	> 50 µg/mL	10 µg/mL (≈ 17.9 µM)	2.1 to 4 µg/mL (≈ 3.76 to 7.16 µM)	> 50 µg/mL	25 to 49%	2 µg/mL (≈ 3.58 µM)	2 µg/mL (≈ 3.58 µM)	2.1 to 4 µg/mL (≈ 3.76 to 7.16 µM)
COc1ccc(F)cc1[C@H](Cn1c(=O)n([C@@H]2CCN(C)C2=O)c(=O)c2c(C)c(-n3nccn3)sc21)OCCO [Compound I-83, 1-((R)-2-(5-fluoro-2-methoxyphenyl)-2-(2-hydroxy-ethoxy)ethyl)-5-methyl-3-((R)-1-methyl-2-oxopyrrolidin-3-yl)-6-(2H-1,2,3-triazol-2-yl)thieno[2,3-d]pyrimidine-2,4(1H,3H)-dione]	2.1 to 4 µg/mL (≈ 3.76 to 7.16 µM)	2 µg/mL (≈ 3.58 µM)	D (provided a compound having <25% control of barley powdery mildew)	0.7 to 2 nM	10 µg/mL (≈ 17.9 µM)	2 µg/mL (≈ 3.58 µM)	2 to 10 nM	> 50 µg/mL	2 µg/mL (≈ 3.58 µM)	2.1 to 4 µg/mL (≈ 3.76 to 7.16 µM)	> 50 µg/mL	70 to 84%	2 µg/mL (≈ 3.58 µM)	10 µg/mL (≈ 17.9 µM)	2.1 to 4 µg/mL (≈ 3.76 to 7.16 µM)
COc1ccc(F)cc1[C@H](Cn1c(=O)n([C@H]2CCNC2=O)c(=O)c2c(C)c(-n3nccn3)sc21)OCCC#N [Compound I-106, 3-((R)-1-(5-fluoro-2-methoxyphenyl)-2-(5-methyl-2,4-dioxo-3-((S)-2-oxopyrrolidin-3-yl)-6-(2H-1,2,3-triazol-2-yl)-3,4-dihydrothieno[2,3-d]pyrimidin-1(2H)-yl)ethoxy)propanenitrile]	2.1 to 4 µg/mL (≈ 3.79 to 7.23 µM)	2 µg/mL (≈ 3.61 µM)	D (provided a compound having <25% control of barley powdery mildew)	0.7 to 2 nM	> 50 µg/mL	2 µg/mL (≈ 3.61 µM)	10 to 100 nM	> 50 µg/mL	> 50 µg/mL	2.1 to 4 µg/mL (≈ 3.79 to 7.23 µM)	> 50 µg/mL	25 to 49%	2 µg/mL (≈ 3.61 µM)	10 µg/mL (≈ 18.1 µM)	2.1 to 4 µg/mL (≈ 3.79 to 7.23 µM)
COc1ccc(F)cc1[C@H](Cn1c(=O)n([C@H]2CCCNC2=O)c(=O)c2c(C)c(-n3nccn3)sc21)OCCC#N [Compound I-110, 3-((R)-1-(5-fluoro-2-methoxyphenyl)-2-(5-methyl-2,4-dioxo-3-((S)-2-oxopiperidin-3-yl)-6-(2H-1,2,3-triazol-2-yl)-3,4-dihydrothieno[2,3-d]pyrimidin-1 (2H)-yl)ethoxy)propanenitrile]	2.1 to 4 µg/mL (≈ 3.7 to 7.05 µM)	2 µg/mL (≈ 3.52 µM)	D (provided a compound having <25% control of barley powdery mildew)	0.7 to 2 nM	> 50 µg/mL	2 µg/mL (≈ 3.52 µM)	10 to 100 nM	> 50 µg/mL	10 µg/mL (≈ 17.6 µM)	2.1 to 4 µg/mL (≈ 3.7 to 7.05 µM)	> 50 µg/mL	50 to 69%	2 µg/mL (≈ 3.52 µM)	10 µg/mL (≈ 17.6 µM)	2.1 to 4 µg/mL (≈ 3.7 to 7.05 µM)
COc1ccc(F)cc1[C@H](Cn1c(=O)n([C@@H]2CCCNC2=O)c(=O)c2c(C)c(-n3nccn3)sc21)OCCC#N [Compound I-111, 3-((R)-1-(5-fluoro-2-methoxyphenyl)-2-(5-methyl-2,4-dioxo-3-((R)-2-oxopiperidin-3-yl)-6-(2H-1,2,3-triazol-2-yl)-3,4-dihydrothieno[2,3-d]pyrimidin-1(2H)-yl)ethoxy)propanenitrile]	2.1 to 4 µg/mL (≈ 3.7 to 7.05 µM)	2 µg/mL (≈ 3.52 µM)	C (provided a compound having from 25 to 49% control of barley powdery mildew)	0.7 to 2 nM	10 µg/mL (≈ 17.6 µM)	2 µg/mL (≈ 3.52 µM)	2 to 10 nM	> 50 µg/mL	10 µg/mL (≈ 17.6 µM)	2.1 to 4 µg/mL (≈ 3.7 to 7.05 µM)	> 50 µg/mL	50 to 69%	2 µg/mL (≈ 3.52 µM)	10 µg/mL (≈ 17.6 µM)	2.1 to 4 µg/mL (≈ 3.7 to 7.05 µM)
